Here are results for eight compounds from article PMC10023679, “Amide-to-ester substitution as a stable alternative to N-methylation for increasing membrane permeability in cyclic peptides” (Nature Communications, 2023).

Where two headings read alike, the source gives them in different places. Non-standard residues stand in square brackets, D forms with d. Residues, ends and D or L forms follow the SMILES beside them. NMeY = CN[C@@H](Cc1ccc(O)cc1)C(=O)O; Hpla = O=C(O)[C@@H](O)Cc1ccc(O)cc1; NMeF = CN[C@@H](Cc1ccccc1)C(=O)O; Hica(2S) = CC(C)C[C@H](O)C(=O)O Where only a bound is given, the exact number is not on record here.

One series in a line: in vitro. Conditions: PAMPA. It counts as in vitro ADME. A general note: In PAMPA a lipid-coated filter parts donor from acceptor wells.
A short description of series [1]: Caco-2 assay (permeability across cell monolayers). The format is in vitro ADME. Conditions: for Papp: Caco-2, 1 μM compounds in HBSS (pH 7.4) containing 10 mM HEPES and 1% DMSO, 3 h incubation at 37 °C, read-out: Caco-2 permeability Pa; for efflux ratio: read-out: Efflux ratio, Pe (basolateral-to-apical)/Pe (apical-to-basolateral). In general terms: Passage across Caco-2 layers is used to estimate intestinal permeability.

Series [2] in a line: 1,9-decadiene-water distribution coefficient. The format is physicochemical. Conditions: decadiene and aqueous buffer.
A further series in a line: Mouse serum stability. It counts as in vitro ADME. Conditions: mouse serum containing 1% DMSO, 37 °C; for Stability in mouse serum: up to 24 h. Here is the method: Compounds were incubated in mouse serum containing 1% DMSO at 37 °C for 24 h in triplicate. At each time point, 20 μL of the solution was aliquoted and diluted four times using acetonitrile to precipitate serum proteins. After centrifugation, the supernatant was diluted with water and the concentration of the intact peptide was quantified by LC-MS. For other peptides, the amount of residual intact peptides was evaluated after incubation in mouse plasma at 37 °C for 30 min. The amount of intact peptides was determined by taking the ratio of the LC-MS peak area of intact peptides just before and after the incubation.

Series [3] in a line: Stability in simulated gastric fluid (SGF). The format is in vitro ADME. Conditions: pH 1.2, 37 °C; for Degradation in SGF: 1–4 h. Here is the method: The stability assay of peptides in SGF was conducted according to United States Pharmacopeia & National Formulary (USP 25-NF 20)[64] and the previous report[65] with some modifications as follows. SGF used in this study was prepared by dissolving pepsin (3.6 mg/mL) (Sigma, P7012, 3357 Unit/mg) in an aqueous solution of 2 mg/mL sodium chloride (NaCl) at pH 1.2. The solution was vortexed for 1 min, sonicated for 15 min, centrifuged at 20,000 × g for 10 min, and filtered before use. 57 μL of SGF was incubated at 37 °C for 15 min and 3 μL of 1 μM peptide solution in DMSO was added to the warmed […]. After 1, 2, or 4 h, 60 μL of ice-cold ultra-pure water containing 5% trifluoroacetic acid was added and 120 μL of 30% acetonitrile in ultra-pure water was added. The samples were filtered and injected into UPLC.

Series [4] is described as follows: Stability in simulated intestinal fluid (SIF). It counts as in vitro ADME. Conditions: pH 6.8, 37 °C; for Degradation in SIF: 1–4 h. Here is the method:
The stability assay of peptides in SIF was conducted according to United States Pharmacopeia & National Formulary (USP 25-NF 20)[64] and the previous report[65] with some modifications as follows. SIF used in this study was prepared by dissolving pancreatin (1.25 mg/mL) (Sigma, P7545, 8 × USP specifications) in 50 mM phosphate buffer at pH 6.8. The solution was vortexed for 1 min, sonicated for 15 min, centrifuged at 20,000 × g for 10 min, and filtered before use. 57 μL of SIF was incubated at 37 °C for 15 min and 3 μL of 1 μM peptide solution in DMSO was added to the warmed […]. After 1, 2, or 4 h, 60 μL of ice-cold ultra-pure water containing 5% trifluoroacetic acid was added and 120 μL of 30% acetonitrile in ultra-pure water was added. The samples were filtered and injected into UPLC.

The next series can be described thus: Solubility assay. Conditions: phosphate buffer (pH 7.4) containing 1.2% DMSO, 37 °C, read-out: Water solubility. The format is physicochemical.
The subject of a further series is Caco-2 cells. In words: Caco-2 assay (permeability across cell monolayers). It counts as in vitro ADME. Conditions: 55 μM.

As for `CC(C)C[C@@H]1NC(=O)[C@H](Cc2ccc(O)cc2)OC(=O)[C@H]2CCCN2C(=O)[C@H](CC(C)C)NC(=O)[C@H](CC(C)C)NC(=O)[C@@H](CC(C)C)NC1=O` [DP1] (cyclo(LL[dP][Hpla]L[dL])), the Papp in “in vitro” turned out to be 2.9 ×10⁻⁶ cm/s; in series [1] it was 2 ×10⁻⁶ cm/s. In addition, in series [2], the “log Ddec/w (1,9-decadiene–water distribution coefficient)” value (from here on “log Ddec/w”) worked out at 1.2. In “Mouse serum stability”, the “Stability in mouse serum” value is given as “stable”. Besides, the “Degradation in SGF” value in series [3] (SGF-containing pepsin) is reported as “no significant degradation”. Also, the “Degradation in SIF” value in series [4] (SIF-containing pancreatin) is “no significant degradation”.
As to `CC[C@H](C)[C@@H]1NC(=O)[C@H](Cc2ccc(O)cc2)NC(=O)[C@@H](N)CSSC[C@@H](C(=O)N2CCC[C@H]2C(=O)N[C@@H](CC(C)C)C(=O)NCC(N)=O)NC(=O)[C@H](CC(N)=O)NC(=O)[C@H](CCC(N)=O)NC1=O` [oxytocin, reference compound], in series [4] (SIF-containing pancreatin, at 4 h), the “Fraction degraded in SIF” value is recorded as “more than 90%”. Moreover, the metabolised at 4 h, 0.05 μM in series [4] (simulated intestinal fluid (SIF) containing pancreatin, at 4 h, read-out: Fraction degraded in SIF) was 94%.
In the case of `CC(C)C[C@H](NC(=O)[C@H](CC(C)C)NC(=O)[C@@H](CC(C)C)NC(=O)[C@H](CC(C)C)NC(=O)[C@H](Cc1ccc(O)cc1)OC(=O)[C@H]1CCCN1)C(N)=O` [DP1L-NH2] (H-[dP][Hpla]L[dL]LL-NH2), the “Time within which degraded in mouse serum” value in “Mouse serum stability” was not above 2 h.
For the compound `CC(C)C[C@@H]1NC(=O)[C@@H](CC(C)C)NC(=O)[C@H](CC(C)C)NC(=O)[C@H](Cc2ccc(O)cc2)N(C)C(=O)[C@H]2CCCN2C(=O)[C@H](CC(C)C)NC1=O` [MP1] (cyclo(LL[dP][NMeY]L[dL])), the results for the Papp (in “in vitro”; in series [1]) were 1.7 ×10⁻⁶ cm/s and 0.6 ×10⁻⁶ cm/s, respectively. In series [2], the “log Ddec/w” value came out at 0.052. In “Mouse serum stability”, the “Stability in mouse serum” value is listed as “stable”. Besides, the “Degradation in SGF” value in series [3] (SGF-containing pepsin) was “no significant degradation”. In addition, in series [4] (SIF-containing pancreatin), the “Degradation in SIF” value is “no significant degradation”.
`C[C@H](N)C(=O)NCC(=O)N[C@H]1CSSC[C@@H](C(=O)O)NC(=O)[C@H](CO)NC(=O)[C@H]([C@@H](C)O)NC(=O)[C@H](Cc2ccccc2)NC(=O)[C@H]([C@@H](C)O)NC(=O)[C@H](CCCCN)NC(=O)[C@H](Cc2c[nH]c3ccccc23)NC(=O)[C@H](Cc2ccccc2)NC(=O)[C@H](Cc2ccccc2)NC(=O)[C@H](CC(N)=O)NC(=O)[C@H](CCCCN)NC1=O` [somatostatin, reference compound]: the “Fraction degraded in SGF” value in series [3] (SGF-containing pepsin, at 4 h) is “more than 90%”. In addition, the metabolised at 4 h, 0.05 μM in series [3] (simulated gastric fluid (SGF) containing pepsin, at 4 h, read-out: Fraction degraded in SGF) was 98%.
With `CC(C)C[C@@H]1NC(=O)[C@H](Cc2ccc(O)cc2)NC(=O)[C@H]2CCCN2C(=O)[C@H](CC(C)C)NC(=O)[C@H](CC(C)C)NC(=O)[C@@H](CC(C)C)NC1=O` [CP1] (cyclo(LL[dP]YL[dL])), the “log Ddec/w” value in series [2] is listed as −0.74. Further, in “Mouse serum stability”, the “Stability in mouse serum” value is listed as “stable”. The “Degradation in SGF” value in series [3] (SGF-containing pepsin) is “no significant degradation”. In addition, the “Degradation in SIF” value in series [4] (SIF-containing pancreatin) is on record as “no significant degradation”. Moreover, the solubility kinetic at 4 h in “Solubility assay” is more than 100 µM.
The compound `CC(=O)N[C@@H](CC(C)C)C(=O)N(C)[C@@H](Cc1ccccc1)C(N)=O` [M2] (Ac-Leu-[NMeF]-NH2) returned a Papp in “in vitro” (pH 7.4) of 0.2 ×10⁻⁶ cm/s. For the same compound, the “log Ddec/w” value in series [2] is listed as “–1.62 ± 0.02”.
Turning to `CC(C)C[C@@H]1NC(=O)[C@@H](CC(C)C)NC(=O)[C@H](CC(C)C)OC(=O)[C@H](Cc2ccc(O)cc2)NC(=O)[C@H]2CCCN2C(=O)[C@H](CC(C)C)NC1=O` [DP2] (cyclo(LL[dP]Y[Hica(2S)][dL])), the Papp in “in vitro” is 2 ×10⁻⁶ cm/s; in series [1] it was 0.9 ×10⁻⁶ cm/s. In addition, the efflux ratio in series [1] (Caco-2, pH 7.4, Inhibitor (+): quinidine, sulfasalazine, benzbromarone, 2 h incubation) turned out to be 1.05; in series [1] (Caco-2, pH 7.4, Inhibitor (–), 1 μM, 2 h incubation), 27.2. The Papp A→B in series [1] (Caco-2, pH 7.4, Inhibitor (+): preincubated with 50 µM quinidine, 20 µM sulfasalazine, 30 µM benzbromarone, 2 h incubation, read-out: Pe (apical-to-basolateral)) came to 14.6 ± 3.5 ×10⁻⁶ cm/s. In series [1] (Caco-2, pH 7.4, Inhibitor (+): preincubated with 50 µM quinidine, 20 µM sulfasalazine, 30 µM benzbromarone, 2 h incubation, read-out: Pe (basolateral-to-apical)), the Papp B→A is 15.3 ± 1.1 ×10⁻⁶ cm/s. Moreover, in series [1] (human, Caco-2, pH 7.4, Inhibitor (–), 1 μM, 2 h incubation, read-out: Pe (apical-to-basolateral)), the Papp A→B at 2 h, 1 μM is 1.5 ± 0.4 ×10⁻⁶ cm/s. Besides, the Papp B→A at 2 h, 1 μM in series [1] (human, Caco-2, pH 7.4, Inhibitor (–), 1 μM, 2 h incubation, read-out: Pe (basolateral-to-apical)) amounted to 40.8 ± 11 ×10⁻⁶ cm/s. The “Caco-2 permeability compared with CP1 at higher concentration” value in the series on Caco-2 cells is listed as “significantly higher permeability than CP1”.
